Reference: patent US20260174717A1 (Sumitomo Pharma America, Inc., priority 2022, published 2026)
Marks after values point to notes of the source that are not given here.

How the values were obtained:
Male Swiss mice [1] = assay: mouse activity meter test (general locomotor activity); format: in vivo; conditions: 4 mg/kg, ip; positive assay control; 30 minutes after dosing, recorded for 30 minutes
Procedure: (§1) Thirty minutes later mice were individually placed in transparent plastic cages with 5 cm of sawdust on the floor and 25 marbles grouped in the center of the cage. The number of marbles covered by sawdust (2/3rd or more covered) was counted at the end of the 30 min test. Two days later, general locomotor activity was assessed in the activity meter test in the same animals. Mice were placed in an automated activity meter apparatus 30 minutes after dosing and the number of crossings recorded in 5-minute time bins for 30 minutes. Chlorpromazine (4 mg/kg, i.p.) was included as a positive assay control. […] Locomotor activity was analyzed by one-way ANOVA followed by Dunnett's post-hoc analysis. Effects of clobazam in the marble burying and activity meter tests were examined with the Mann-Whitney U test and unpaired student's t-test, respectively.

Male Swiss mice [2] = assay: mouse marble burying test; format: in vivo; conditions: 8 mg/kg, ip; positive control; 30 min before 30 min test
Procedure: as §1

SMILES | Number of crossings (Mean ± SEM) (Male Swiss mice [1]) | Number of marbles buried (Mean ± SEM) (Male Swiss mice [2])
CN(C)CCCN1c2ccccc2Sc2ccc(Cl)cc21 [Chlorpromazine] | 3.6 ± 0.7^a | –
CN1C(=O)CC(=O)N(c2ccccc2)c2cc(Cl)ccc21 [Clobazam, clobazam] | – | 0.5 ± 0.3^a
